# Key:
# [1] = (§1) In vitro flocculation inhibitory ability was determined towards Yeast cell wall lectin (KbWCL); format: functional, Saccharomyces cerevisiae
# Saccharomyces cerevisiae = experiment: as §1; format: functional
# [2] = Saccharomyces cerevisiae, read-out: MIC
smiles,measurement,setting,value
O=[N+]([O-])c1ccc(O[C@H]2O[C@H](CO)[C@@H](O)[C@H](O)[C@H]2O)cc1 (stereo in doubt; form 1),MIC,[1],400 µM
OC[C@H]1O[C@H](OCC2O[C@@H](O)[C@H](O)[C@@H](O)[C@@H]2O)[C@H](O)[C@@H](O)[C@H]1O (stereo not given in full) [MELIBIOSE],MIC,[1]; [2],600 µM
O=C(CCCCCCCC(=O)N[C@@H]1O[C@@H](CO)[C@H](O)[C@H](O)[C@@H]1O)NC[C@@H]1O[C@@H]2O[C@H]3[C@H](O)[C@H](O)[C@@H](O[C@H]4[C@H](O)[C@H](O)[C@@H](O[C@H]5[C@H](O)[C@H](O)[C@@H](O[C@H]6[C@H](O)[C@H](O)[C@@H](O[C@H]7[C@H](O)[C@H](O)[C@@H](O[C@H]8[C@H](O)[C@H](O)[C@@H](O[C@H]1[C@H](O)[C@@H]2O)O[C@H]8CO)O[C@H]7CO)O[C@H]6CO)O[C@H]5CO)O[C@H]4CO)O[C@H]3CO,MIC,[1]; [2],1700 µM
O=C(NC[C@@H]1O[C@@H]2O[C@H]3[C@H](O)[C@H](O)[C@@H](O[C@H]4[C@H](O)[C@H](O)[C@@H](O[C@H]5[C@H](O)[C@H](O)[C@@H](O[C@H]6[C@H](O)[C@H](O)[C@@H](O[C@H]7[C@H](O)[C@H](O)[C@@H](O[C@H]8[C@H](O)[C@H](O)[C@@H](O[C@H]1[C@H](O)[C@@H]2O)O[C@H]8CO)O[C@H]7CO)O[C@H]6CO)O[C@H]5CO)O[C@H]4CO)O[C@H]3CO)C(CS[C@@H]1O[C@@H](CO)[C@H](O)[C@H](O)[C@@H]1O)CS[C@@H]1O[C@@H](CO)[C@H](O)[C@H](O)[C@@H]1O,MIC,[1]; [2],2000 µM
OC[C@H]1O[C@@H]2O[C@H]3[C@H](O)[C@@H](O)[C@@H](O[C@H]4[C@H](O)[C@@H](O)[C@@H](O[C@H]5[C@H](O)[C@@H](O)[C@@H](O[C@H]6[C@H](O)[C@@H](O)[C@@H](O[C@H]7[C@H](O)[C@@H](O)[C@@H](O[C@H]1[C@H](O)[C@H]2O)O[C@@H]7CO)O[C@@H]6CO)O[C@@H]5CO)O[C@@H]4CO)O[C@@H]3CO,MIC,Saccharomyces cerevisiae,No inhibition
OC[C@@H]1O[C@@H](SC[C@@H]2O[C@@H]3O[C@H]4[C@H](O)[C@H](O)[C@@H](O[C@H]5[C@H](O)[C@H](O)[C@@H](O[C@H]6[C@H](O)[C@H](O)[C@@H](O[C@H]7[C@H](O)[C@H](O)[C@@H](O[C@H]8[C@H](O)[C@H](O)[C@@H](O[C@H]9[C@H](O)[C@H](O)[C@@H](O[C@H]2[C@H](O)[C@@H]3O)O[C@H]9CO)O[C@H]8CO)O[C@H]7CO)O[C@H]6CO)O[C@H]5CO)O[C@H]4CO)[C@@H](O)[C@@H](O)[C@@H]1O,MIC,[1]; [2],3750 µM
OC[C@H]1OC(O)[C@H](O)[C@@H](O)[C@@H]1O (stereo not given in full),MIC,Saccharomyces cerevisiae,No inhibition
OC1OC[C@@H](O)[C@@H](O)[C@@H]1O (stereo not given in full),MIC,Saccharomyces cerevisiae,No inhibition
C[C@H]1OC(O)[C@H](O)[C@@H](O)[C@H]1O (stereo not given in full),MIC,[1]; [2],3500 µM
O=[N+]([O-])c1ccc(O[C@H]2O[C@H](CO)[C@@H](O)[C@H](O)[C@H]2O)cc1 (stereo in doubt; form 2),MIC,[1],830 µM
OC[C@H]1O[C@H](OC[C@H]2O[C@H](O[C@]3(CO)O[C@H](CO)[C@@H](O)[C@@H]3O)[C@H](O)[C@@H](O)[C@@H]2O)[C@H](O)[C@@H](O)[C@H]1O [RAFFINOSE],MIC,[1]; [2],1200 µM
[Na+].[O-]CC1OC(SCC2OC3OC4C(CSC5OC(CO)C(O)C(O)C5O)OC(OC5C(CSC6OC(CO)C(O)C(O)C6O)OC(OC6C(CSC7OC(CO)C(O)C(O)C7O)OC(OC7C(CSC8OC(CO)C(O)C(O)C8O)OC(OC8C(CSC9OC(CO)C(O)C(O)C9O)OC(OC9C(CSC%10OC(CO)C(O)C(O)C%10O)OC(OC2C(O)C3O)C(O)C9O)C(O)C8O)C(O)C7O)C(O)C6O)C(O)C5O)C(O)C4O)C(O)C(O)C1O (stereo in doubt; 5),MIC,[1],1660 µM
OC[C@H]1O[C@@H]2O[C@H]3[C@H](O)[C@@H](O)[C@@H](O[C@H]4[C@H](O)[C@@H](O)[C@@H](O[C@H]5[C@H](O)[C@@H](O)[C@@H](O[C@H]6[C@H](O)[C@@H](O)[C@@H](O[C@H]7[C@H](O)[C@@H](O)[C@@H](O[C@H]8[C@H](O)[C@@H](O)[C@@H](O[C@H]1[C@H](O)[C@H]2O)O[C@@H]8CO)O[C@@H]7CO)O[C@@H]6CO)O[C@@H]5CO)O[C@@H]4CO)O[C@@H]3CO,MIC,Saccharomyces cerevisiae,No inhibition
[Na+].[O-]CC1OC(SCC2OC3OC4C(CSC5OC(CO)C(O)C(O)C5O)OC(OC5C(CSC6OC(CO)C(O)C(O)C6O)OC(OC6C(CSC7OC(CO)C(O)C(O)C7O)OC(OC7C(CSC8OC(CO)C(O)C(O)C8O)OC(OC8C(CSC9OC(CO)C(O)C(O)C9O)OC(OC9C(CSC%10OC(CO)C(O)C(O)C%10O)OC(OC2C(O)C3O)C(O)C9O)C(O)C8O)C(O)C7O)C(O)C6O)C(O)C5O)C(O)C4O)C(O)C(O)C1O (stereo in doubt; 6),MIC,[1],700 µM
OCC1OC(SCCSCC2OC3OC4C(CSCCSC5OC(CO)C(O)C(O)C5O)OC(OC5C(CSCCSC6OC(CO)C(O)C(O)C6O)OC(OC6C(CSCCSC7OC(CO)C(O)C(O)C7O)OC(OC7C(CSCCSC8OC(CO)C(O)C(O)C8O)OC(OC8C(CSCCSC9OC(CO)C(O)C(O)C9O)OC(OC9C(CSCCSC%10OC(CO)C(O)C(O)C%10O)OC(OC2C(O)C3O)C(O)C9O)C(O)C8O)C(O)C7O)C(O)C6O)C(O)C5O)C(O)C4O)C(O)C(O)C1O (stereo not given),MIC,[1]; [2],410 µM

# Reference: ChEMBL document CHEMBL1127717, “Synthesis of new oligosaccharidyl-thio--cyclodextrins (CDS): a novel family of potent drug-targetting vectors” (1994)
